Measured values taken from patent US20240293563A1, “GLP-1 RECEPTOR LIGAND MOIETY CONJUGATED OLIGONUCLEOTIDES AND USES THEREOF” (priority 2017, published 2024).
Square brackets hold non-standard residues; d marks the D form. Side chains are listed from the residue outwards. Ends that are not written are not given here. 5'‑hexylamino oligonucleotide ISIS 722061 = not defined here; 5'‑hexylamino oligonucleotide ION 913192 = not defined here; Aib = CC(C)(N)C(=O)O; Mpa = O=C(O)CCS

Experiments:
FoxO1 protein [1] = assay: FoxO1 protein (Western Blot) in cultured mouse primary islets of Langerhans treated with ASO; type: cell-based; details: Western Blot normalized to α-tubulin; islets treated for 96 hours; 1 μM
Description: Pancreatic islets were isolated by collagenase digestion from pancreas collected from euthanized 12 to 15 weeks old female B6.Cg-Lepob/J mice and maintained in tissue culture until use. 150 intact islets were placed in plastic Petri Dishes and treated with 1 μM of antisense oligonucleotides for 3 hrs every 24 hrs and harvested after approximately 24 hrs, 48 hrs or 96 hrs total treatment time respectively. After the treatment period, islets were harvested, and half of the islets were used to measure FOXO1 mRNA levels as described herein (Example 9). Half of the islets were homogenized in M-PER protein extraction reagent (Thermo Scientific) containing a protease inhibitor cocktail (Complete Mini and phosphoSTOP, Roche Diagnostics). The protein content of lysates were quantitated using BCA Assay Reagent (Pierce). […] For the anti-FoxO1 antibody, the secondary antibody was HRP-conjugated polyclonal goat anti-Rabbit P0448 (DAKO) and for the anti-α-tubulin antibody, the secondary antibody was HRP-conjugated polyclonal goat anti-mouse P0447 (DAKO). Enhanced chemiluminescence reagents (Pierce) were used for detection. […] Protein levels were quantified by measuring the intensity of the bands on the gel normalized to the intensity of α-tubulin, and expressed as percent of vehicle treated islets. FoxO1 protein levels were set to 100% in vehicle treated islets. […]

FOXO1 mRNA [2] = assay: FOXO1 mRNA in cultured mouse primary islets of Langerhans treated with ASO; type: cell-based; details: for Islet FOXO1 mRNA levels relative to control (RPLP0): percent of untreated cells, 1 μM ASO 3 hrs every 24 hrs
Description: Pancreatic islets were isolated by collagenase digestion from pancreas collected from exsanguinated 12 to 15 weeks old female C57BL/6Crl mice. Islets were maintained in tissue culture until use. Islet were dissociated into single cells by shaking in media containing a low extracellular calcium concentration. 10 to 20 intact or dissociated islets were plated on plastic Petri Dishes and treated with 10 μM of antisense oligonucleotides for approximately 24 hrs. After the treatment period cells were harvested, RNA isolated, adjusted to total RNA content, as measured by RIBOGREEN®. MALAT1 or FOXO1 mRNA levels measured by quantitative real-time PCR. […] All data was normalized to the mRNA level of the house keeping gene (RPLP0) in the same sample, measured using a primer probe set with forward sequence […] NO: 71), reverse sequence […] NO: 72) and probe sequence […] NO: 73). Pancreatic islets were isolated by collagenase digestion from pancreas collected from euthanized 12 to 15 weeks old female B6.Cg-Lepob/J mice and maintained in tissue culture until use. 150 intact islets were placed in plastic Petri Dishes and treated with 1 μM of antisense oligonucleotides for 3 hrs every 24 hrs and harvested after approximately 24 hrs, 48 hrs or 96 hrs total treatment time respectively. After the treatment period, islets were harvested, and half of the islets were used to measure FOXO1 mRNA levels as described herein (Example 9). Half of the islets were homogenized in M-PER protein extraction reagent (Thermo Scientific) containing a protease inhibitor cocktail (Complete Mini and phosphoSTOP, Roche Diagnostics). The protein content of lysates were quantitated using BCA Assay Reagent (Pierce). […] For the anti-FoxO1 antibody, the secondary antibody was HRP-conjugated polyclonal goat anti-Rabbit P0448 (DAKO) and for the anti-α-tubulin antibody, the secondary antibody was HRP-conjugated polyclonal goat anti-mouse P0447 (DAKO). Enhanced chemiluminescence reagents (Pierce) were used for detection.

FOXO1 mRNA [3] = assay: FOXO1 mRNA in isolated islets and liver after 6 weeks repeated administration to ob/ob mice; type: in vivo, mouse; details: ob/ob mice
Description: Pancreatic islets were isolated by collagenase digestion from pancreas collected from exsanguinated 12 to 15 weeks old female C57BL/6Crl mice. Islets were maintained in tissue culture until use. Islet were dissociated into single cells by shaking in media containing a low extracellular calcium concentration. 10 to 20 intact or dissociated islets were plated on plastic Petri Dishes and treated with 10 μM of antisense oligonucleotides for approximately 24 hrs. After the treatment period cells were harvested, RNA isolated, adjusted to total RNA content, as measured by RIBOGREEN®. MALAT1 or FOXO1 mRNA levels measured by quantitative real-time PCR. […] All data was normalized to the mRNA level of the house keeping gene (RPLP0) in the same sample, measured using a primer probe set with forward sequence […] NO: 71), reverse sequence […] NO: 72) and probe sequence […] NO: 73). Male ob/ob mice (B6.V-Lepob/OlaHsd, Harlan) were assigned to five treatment groups receiving either vehicle, 0.1 μmol/kg ISIS 776102, 0.1 μmol/kg ION 913195, 0.03 ION 913193 or 1 μmol/kg ION 913193. All animals were treated once weekly for 6 weeks. Approximately 120 hrs after last dose all animals were sacrificed, liver samples collected and pancreatic islets isolated, as described herein (Example 9), for mRNA analysis. FOXO1 mRNA levels were quantified as described herein (Example 9) and mRNA levels expressed relative to housekeeping gene in each sample (RPLP0).

FoxO1 protein [4] = assay: FoxO1 protein levels in islets isolated from ob/ob mice treated for 6 weeks; type: in vivo, mouse
Description: Pancreatic islets were isolated by collagenase digestion from pancreas collected from euthanized 12 to 15 weeks old female B6.Cg-Lepob/J mice and maintained in tissue culture until use. 150 intact islets were placed in plastic Petri Dishes and treated with 1 μM of antisense oligonucleotides for 3 hrs every 24 hrs and harvested after approximately 24 hrs, 48 hrs or 96 hrs total treatment time respectively. After the treatment period, islets were harvested, and half of the islets were used to measure FOXO1 mRNA levels as described herein (Example 9). Half of the islets were homogenized in M-PER protein extraction reagent (Thermo Scientific) containing a protease inhibitor cocktail (Complete Mini and phosphoSTOP, Roche Diagnostics). The protein content of lysates were quantitated using BCA Assay Reagent (Pierce). […] For the anti-FoxO1 antibody, the secondary antibody was HRP-conjugated polyclonal goat anti-Rabbit P0448 (DAKO) and for the anti-α-tubulin antibody, the secondary antibody was HRP-conjugated polyclonal goat anti-mouse P0447 (DAKO). Enhanced chemiluminescence reagents (Pierce) were used for detection. Male ob/ob mice (B6.V-Lepob/OlaHsd, Harlan) were assigned to five treatment groups receiving either vehicle, 0.1 μmol/kg ISIS 776102, 0.1 μmol/kg ION 913195, 0.03 ION 913193 or 1 μmol/kg ION 913193. All animals were treated once weekly for 6 weeks. Approximately 120 hrs after last dose all animals were sacrificed, liver samples collected and pancreatic islets isolated, as described herein (Example 9), for mRNA analysis. FOXO1 mRNA levels were quantified as described herein (Example 9) and mRNA levels expressed relative to housekeeping gene in each sample (RPLP0). Male ob/ob mice were assigned to five treatment groups as described herein (Example 17) Approximately 120 hrs after last dose all animals were sacrificed and pancreatic islets isolated for FoxO1 protein analysis as described herein (Example 10). Random samples were selected from each treatment group and loaded on each gel such that at least one sample from each treatment group was analysed on the same gels. FoxO1 protein levels were measured by quantifying the intensity and normalized against the α-tublin levels in the same sample. All samples within individual gels were expressed as percentage of the levels measured in islets of animals receiving ION 913195.

MALAT1 [5] = assay: MALAT1 in situ hybridization in beta islet cells after i.v. GLP-1 ASO conjugates with various linkers; type: in vivo, mouse; details: male C57BL/6 mice; intravenous 0.6 μmol/kg/week once a week for three weeks; 72 hours after final injection
MALAT-1 = assay: Dose-dependent reduction of MALAT-1 expression in LVX-GLP1R cells; type: cell-based, human
Description: HEK cells stably expressing FLAG-tagged GLP1R were generated by infecting HEK 293 cells with FLAG-tagged GLP1R containing lentivirus produced by transfection of 293T cells with pLVX-IRES-Puro (Clontech Laboratories Inc., Mountainview, CA) harboring the FLAG-GLP1R insert. Infected cells were selected with puromycin (2 μg/ml) and then analyzed for receptor expression by western blot and immunofluorescence. Cultured GLP1R cells were plated at a density of 10,000 cells per well and treated with 0.3, 1, 3, 9, 27, 82, 247, 741, 2,222, 6,667, and 20,000 nM modified oligonucleotide for approximately 24 hours. After the treatment period, total RNA was prepared using an RNeasy mini kit (Qiagen, Valencia, CA, USA) and qRT-PCR was performed using the primer probe set RTS2739 (forward sequence: […] (SEQ ID NO: 74), reverse sequence: […] (SEQ ID NO: 75), probe sequence: […] (SEQ ID NO: 76). Briefly, ˜50 ng total RNA in 5 d water was mixed with 0.3 d primer probe sets containing forward and reverse primers (10 μM of each) and fluorescently labeled probe (3 μM), 0.3 W RT enzyme mix (Qiagen), 4.4 d RNase-free water, and 10 d of 2×PCR reaction buffer in a 20 d reaction. Reverse transcription was performed at 48° C. for 10 min, 40 cycles of PCR were conducted at 94° C. for 20 s, and 60° C. for 20 s within each cycle, using StepOne Plus RT-PCR system (Applied Biosystems, Phoenix, AZ, USA). The mRNA levels were normalized to the amount of total RNA present in each reaction as determined by Ribogreen assay (Life Technologies) and normalized to the saline control (100% expression).

MALAT1 [6] = assay: Effect of peptide composition and attachment point on peptide-conjugated ASO activity in LVX-GLP1R cells; type: cell-based, human; details: 7 doses in a 4-fold dilution series, MALAT1 RNA
[7] = 0.03 μmol/kg once weekly for 6 weeks
[8] = 0.1 μmol/kg once weekly for 6 weeks

ION 913193 (H[Aib]EGTFTSDVSSYLEEQAAKEFIAWLVKGGPSSGAPPPSC([Mpa-5'‑hexylamino oligonucleotide ION 913192])-NH2; reading uncertain; also: Cys40 joined to the linker by a disulfide)
FoxO1 protein levels, percent of vehicle treated islets (FoxO1 protein [1]): 5% | reduction in FOXO1 mRNA (FOXO1 mRNA [2]; mouse islets, 1 μM ASO, summary of Table 2): more than 70% | Islet FOXO1 mRNA levels relative to control (RPLP0) (FOXO1 mRNA [2]; 24 hours): 31% | Islet FOXO1 mRNA levels relative to control (RPLP0) (FOXO1 mRNA [2]; 48 hours): 30% | Islet FOXO1 mRNA levels relative to control (RPLP0) (FOXO1 mRNA [2]; 96 hours): 25% | average FOXO1 mRNA reduction in isolated islets of Langerhans (FOXO1 mRNA [3]; [7]): 42% | average FOXO1 mRNA reduction in isolated islets of Langerhans (FOXO1 mRNA [3]; [8]): 72% | Foxo1 protein levels reduced relative to ION 913195 (FoxO1 protein [4]; [7]): 57% | Foxo1 protein levels reduced relative to animals treated with 0.1 μmol/kg ISIS 776102 (FoxO1 protein [4]; [7]): 64% | Foxo1 protein levels reduced relative to ION 913195 (FoxO1 protein [4]; [8]): 81% | Foxo1 protein levels reduced relative to animals treated with 0.1 μmol/kg ISIS 776102 (FoxO1 protein [4]; [8]): 36%

ION 962963 (H[Aib]EGTFTSDVSSYLEEQAAKEFIAWLVKGGPSSGAPPPSC([Mpa-5'‑hexylamino oligonucleotide ISIS 722061])-NH2; reading uncertain; also: Cys40 joined to the linker by a disulfide)
MALAT1 expression in beta islet cells compared to saline control (in situ hybridization) (MALAT1 [5]): reduced | dose-dependent inhibition of MALAT-1 (MALAT-1; GLP1R HEK cells, GLP-1 complexed ASOs with or without a TCA linker versus parent): increased dose-dependent inhibition | IC50 (MALAT-1; approximately 24 hours, read-out: IC50 (MALAT-1 expression in GLP1R HEK cells)): 350 nM

ION 1083569 (HSEGTFTSDVSSYLEGQAAKEFIAWLVKGRX; C-terminal Z = 4-azidonorleucine, joined by a click reaction to the 5'-BCN MALAT1 oligonucleotide ION 791173; C-terminal amide)
IC50 (MALAT1 [6]): 2020 nM
